Measurements published in patent US4605649A, “Method of treatment of estrogen deficiency disease” (priority 1984, dated 1986).
Like-named read-outs stand apart in the source and are kept apart here.

Tests used:
estrogen receptor [1] = conditions: cytosol of hypothalamus-preoptic area, pituitary, uterus; Pfeiffer et al. (1982); cited from earlier work
[2] = tested on: testes of male Syrian hamsters; assay: Testes weight of male hamsters after s.c. estrogen implant (estrogenicity); assay type: in vivo; conditions: for Range Of Testes Weight Of Male Hamsters: 25 mg s.c. pellet (90% estrogen), second pellet at 106 days, four animals per group
Protocol: In a second method, the weights of both testes of those male Syrian hamsters which were used in the in vivo carcinogenicity assay, were measured on the 224th day after s.c. implantation of 25 mg. pellets of estrogen. The weights were measured in grams (expressed as percent of total body weight).
(§1) Male Syrian hamsters, 3-4 weeks of age (Harlan/Sprague Dawley, Madison, Wis.), were given a 25 mg. s.c. implant consisting of 10% cholesterol and 90% estrogen. A second 25 mg. pellet of the same composition was implanted 106 days after the initial estrogen treatment. Estrogen treatment was carried out according to the procedure of Kirkman--National Cancer Institute Monograph, 2, 1-57 (1959). Control animals were left untreated. Two hundred twenty-four days after treatment with estrogens had begun, hamsters were weighed, killed, both testes were excised and their weights measured in grams. Data presented in Table 1 are the ranges of testes weights from four animals in each group. Weights are expressed as percentages of total body weights.

[3] = tested on: renal clear cell carcinoma; assay: In vivo carcinogenicity: renal clear-cell carcinoma in male Syrian hamsters
Protocol: as §1
The carcinogenicity of the modified estrogens was measured in male Syrian hamsters in vivo. Estrogen, and estrogen alone, causes renal clear cell carcinoma in 100% of the male animal population when exposed to s.c. estrogen implants. This kidney tumor is estrogen-induced and estrogen-dependent for development and growth. Failure to resupply estrogen every three months or surgical removal of implants results in tumor regression within a few weeks. […] The spontaneous kidney tumor incidence in Syrian hamsters without estrogen treatment is very low. The above facts are fully discussed in Kirkman, Nat'l. Can. Inst. Monograph, 1, 1 (1959); McGregor et al., J. Nat'l. Can. Inst., 24, 1057 (1960) and Sirbasku et al., Endocrin., 98, 1260 (1976).
The protocol employed was that set out for determining estrogen activity in male hamsters according to Table 1 (in that the animals examined for tumors at 224 days were the source of the testes). In the carcinogenicity experiment, further groups of animals were examined at 279 and 345 days. The animals were decapitated, the kidneys were excised and inspected visually for the occurrence of renal celear-cell carcinoma. Sections were prepared of all kidneys and studied histologically. In the table, column 1 gives the name of the compound, column 2 the total number of animals, column 3, the number of dead or lost animals and columns 4, 5 and 6 results of histologic examination of animals at the specified time interval for renal clear-cell carcinoma.

estrogen receptor [4] = conditions: relative to estradiol = 100; Heiman et al., J. Med. Chem., 23, 994 (1980); cited from earlier work
[5] = tested on: catechol estrogen formation; conditions: cited from earlier work
DNA = conditions: cited from earlier work
estrogenic activity = conditions: catechol metabolites; cited from earlier work
protein or peptides = conditions: cited from earlier work
[6] = tested on: tumors in experimental animals; conditions: prolonged treatment; testes, endometrium, ovary, cervix, mammary and other tissues; cited from earlier work
[7] = 224 days after s.c. implantation of estrogen
[8] = 279 days after s.c. implantation of estrogen
[9] = 345 days after s.c. implantation of estrogen

Row | SMILES | Range Of Testes Weight Of Male Hamsters ([2]; 224 days) | No. of Animals with Tumors/No. of Animals Examined [3, 7] | No. of Animals with Tumors/No. of Animals Examined [3, 8] | No. of Animals with Tumors/No. of Animals Examined [3, 9] | estrogenic activity (estrogenic activity) | tumor induction [6] | also measured
1 | C[C@]12CC[C@@H]3c4cc(F)c(O)cc4CC[C@H]3[C@@H]1CC[C@@H]2O [2-fluoro-β-estradiol, 2-fluoro-3,17β-estradiol] | 0.18-0.25 % Of Total Body Weight | 0/4 | 0/4 | 0/3 |  |  | estrogen receptor affinity (estrogen receptor [1]): high receptor affinity; estrogenicity (conclusion) ([2]; in words, hamster model): highly estrogenic; potential for induced renal clear cell carcinomas ([3]; in words, compared with estradiol or 4-fluoro-β-estradiol at equal estrogen dosages): greatly decreased potential; carcinogenicity (conclusion) ([3]; in words, particular animal model): non-carcinogenic; estrogen receptor binding affinity, ratio of association constants (Ka compound/Ka estradiol)×100 (estrogen receptor [4]): 86; catechol estrogen formation [5]: reduced catechol estrogen formation
2 | C[C@]12CC[C@@H]3c4cc(O)c(O)cc4CC[C@H]3[C@@H]1CC[C@@H]2O [2-hydroxyestradiol] |  |  |  |  | almost devoid of estrogenic activity |  | covalent binding to DNA (DNA; in vitro): bind covalently; covalent binding to protein or peptides (protein or peptides; in vitro): bind covalently
3 | C[C@]12CC[C@@H]3c4cc(O)c(O)cc4CC[C@H]3[C@@H]1CCC2=O [2-hydroxyestrone] |  |  |  |  | almost devoid of estrogenic activity |  | covalent binding to DNA (DNA): bind covalently; covalent binding to protein or peptides (protein or peptides): bind covalently
4 | C[C@]12CC[C@@H]3c4ccc(O)c(F)c4CC[C@H]3[C@@H]1CC[C@@H]2O [4-fluoro-β-estradiol] | 0.18-0.28 % Of Total Body Weight | 1/4 | 3/6 | 0/3 |  |  | estrogen receptor affinity (estrogen receptor [1]): high receptor affinity; animals judged histologically to be preneoplastic ([3]; 224 days): 2 of 4; estrogen receptor binding affinity, ratio of association constants (Ka compound/Ka estradiol)×100 (estrogen receptor [4]): 128; catechol estrogen formation ([5]; Krey et al. (1983)): reduced catechol estrogen formation
5 | C[C@]12CC[C@@H]3c4ccc(O)c(O)c4CC[C@H]3[C@@H]1CC[C@@H]2O [4-hydroxyestradiol] |  |  |  |  | almost devoid of estrogenic activity |  | covalent binding to DNA (DNA; in vitro): bind covalently; covalent binding to protein or peptides (protein or peptides; in vitro): bind covalently
6 | C[C@]12CC[C@@H]3c4ccc(O)c(O)c4CC[C@H]3[C@@H]1CCC2=O [4-hydroxyestrone] |  |  |  |  | almost devoid of estrogenic activity |  | covalent binding to DNA (DNA): bind covalently; covalent binding to protein or peptides (protein or peptides): bind covalently
7 | CC/C(=C(/CC)c1ccc(O)cc1)c1ccc(O)cc1 [DES, diethylstilbestrol] |  |  |  |  |  | increase the number of tumors | 
8 | C[C@]12CC[C@@H]3c4ccc(O)cc4CC[C@H]3[C@@H]1CC[C@@H]2O [estradiol] | 0.12-0.26 % Of Total Body Weight | 4/4 | 5/5 | 0/4 |  | induce tumors | testes weight relative to untreated hamsters ([2]; 224 days, shrinking to % of the weights of testes in untreated hamsters): approximately 10%
9 | C[C@]12CC[C@@H]3c4ccc(O)cc4CC[C@H]3[C@@H]1C[C@@H](O)[C@@H]2O [estriol] |  |  |  |  |  | induce tumors | 
10 | C[C@]12CC[C@@H]3c4ccc(O)cc4CC[C@H]3[C@@H]1CCC2=O [estrone] |  |  |  |  |  | induce tumors | 
